According to patent US10563263B2, “Genetic polymorphisms associated with statin response and cardiovascular diseases, methods of detection and uses thereof” (CELERA CORPORATION, priority 2010, dated 2020):

Test system: revascularization, unstable angina requiring hospitalization, MI, all causes of death, or stroke
Test: PROVE IT-TIMI 22: SNP by treatment interaction (high-dose atorvastatin vs standard-dose pravastatin), logistic regression (synergy index), primary composite endpoint
Assay type: in vivo, human
Settings: for OR: PROVEIT

CC(C)c1c(C(=O)Nc2ccccc2)c(-c2ccccc2)c(-c2ccc(F)cc2)n1CC[C@@H](O)C[C@@H](O)CC(=O)O [Atorvastatin, atorvastatin]
OR (marker rs13129010, caseonly, model dom, End-point CHD, atorvastatin vs pravastatin): 1.39 | OR (marker rs13150189, caseonly, model dom, End-point CVD, atorvastatin vs pravastatin): 1.36 | OR (marker rs16934059, cohort, model dom, End-point CHD, atorvastatin vs pravastatin): 0.65 | OR (marker rs17002013, cohort, model dom, End-point CVD, atorvastatin vs pravastatin): 1.38 | OR (marker rs17688430, caseonly, model add, End-point CVD, atorvastatin vs pravastatin): 0.77 | OR (marker rs17821383, caseonly, model rec, End-point CHD, atorvastatin vs pravastatin): 0.35 | OR (rs4773, caseonly, dom, CVD): 0.68 | OR (rs475420, caseonly, dom, CVD): 1.57 | OR (rs1045916, caseonly, add, CHD): 0.79 | OR (rs7067780, caseonly, dom, CVD): 1.41 | OR (rs9906737, caseonly, dom, CHD): 0.53 | OR (rs17644708, caseonly, rec, CVD): 0.34 | OR (SNP x treatment interaction) (rs742827, allele A, ADD, Imputed, atorvastatin vs pravastatin): 1.396 | OR (SNP x treatment interaction) (rs879961, allele T, ADD, Imputed, atorvastatin vs pravastatin): 1.178 | OR (SNP x treatment interaction) (rs906353, allele A, DOM, Imputed, atorvastatin vs pravastatin): 1.22 | OR (SNP x treatment interaction) (rs915491, allele C, DOM, Imputed, atorvastatin vs pravastatin): 1.329 | OR (SNP x treatment interaction) (rs915493, allele T, DOM, Imputed, atorvastatin vs pravastatin): 1.329 | OR (SNP x treatment interaction) (rs915494, allele A, ADD, Imputed, atorvastatin vs pravastatin): 1.399 | OR (SNP x treatment interaction) (rs915494, allele A, DOM, Imputed, atorvastatin vs pravastatin): 1.486 | OR (SNP x treatment interaction) (rs917295, allele G, DOM, Imputed, atorvastatin vs pravastatin): 0.5934 | OR (SNP x treatment interaction) (rs966583, allele A, ADD, Imputed, atorvastatin vs pravastatin): 0.7596 | OR (SNP x treatment interaction) (rs966583, allele A, DOM, Imputed, atorvastatin vs pravastatin): 0.6781 | OR (SNP x treatment interaction) (rs7180245, allele A, REC, Imputed, atorvastatin vs pravastatin): 1.965 | OR (SNP x treatment interaction) (rs7283476, allele T, ADD, Imputed, atorvastatin vs pravastatin): 0.413 | OR (SNP x treatment interaction) (rs7283476, allele T, DOM, Imputed, atorvastatin vs pravastatin): 0.3545 | OR (SNP x treatment interaction) (rs7298255, allele A, ADD, Imputed, atorvastatin vs pravastatin): 0.7433 | OR (SNP x treatment interaction) (rs7298255, allele A, DOM, Imputed, atorvastatin vs pravastatin): 0.74 | OR (SNP x treatment interaction) (rs7392620, allele C, ADD, Imputed, atorvastatin vs pravastatin): 0.6521 | OR (SNP x treatment interaction) (rs7446891, allele G, DOM, Imputed, atorvastatin vs pravastatin): 0.5934 | OR (SNP x treatment interaction) (rs7448641, allele C, ADD, Imputed, atorvastatin vs pravastatin): 0.9741 | OR (SNP x treatment interaction) (rs7448641, allele C, DOM, Imputed, atorvastatin vs pravastatin): 1.136 | OR (SNP x treatment interaction) (rs7499402, allele A, ADD, Genotyped, atorvastatin vs pravastatin): 2.08 | OR (SNP x treatment interaction) (rs7529851, allele A, ADD, Imputed, atorvastatin vs pravastatin): 0.7324 | OR (SNP x treatment interaction) (rs7573951, allele G, ADD, Imputed, atorvastatin vs pravastatin): 1.009 | OR (SNP x treatment interaction) (rs7599198, allele T, DOM, Imputed, atorvastatin vs pravastatin): 0.9895 | OR (SNP x treatment interaction) (rs7607712, allele T, ADD, Imputed, atorvastatin vs pravastatin): 1.357 | OR (SNP x treatment interaction) (rs7607712, allele T, DOM, Imputed, atorvastatin vs pravastatin): 1.496 | OR (SNP x treatment interaction) (rs7621663, allele G, REC, Imputed, atorvastatin vs pravastatin): 0.8874 | OR (SNP x treatment interaction) (rs7626584, allele G, ADD, Imputed, atorvastatin vs pravastatin): 0.6617 | OR (SNP x treatment interaction) (rs7684899, allele C, ADD, Imputed, atorvastatin vs pravastatin): 0.617 | OR (SNP x treatment interaction) (rs7684899, allele C, DOM, Imputed, atorvastatin vs pravastatin): 0.5176 | OR (SNP x treatment interaction) (rs7701604, allele G, ADD, Imputed, atorvastatin vs pravastatin): 0.9741 | OR (SNP x treatment interaction) (rs7701604, allele G, DOM, Imputed, atorvastatin vs pravastatin): 1.136 | OR (SNP x treatment interaction) (rs7703676, allele C, ADD, Imputed, atorvastatin vs pravastatin): 0.9741 | OR (SNP x treatment interaction) (rs7703676, allele C, DOM, Imputed, atorvastatin vs pravastatin): 1.136 | OR (SNP x treatment interaction) (rs7708491, allele C, REC, Imputed, atorvastatin vs pravastatin): 1.179 | OR (SNP x treatment interaction) (rs7711358, allele A, DOM, Imputed, atorvastatin vs pravastatin): 0.593 | OR (SNP x treatment interaction) (rs7724761, allele T, REC, Imputed, atorvastatin vs pravastatin): 1.207 | OR (SNP x treatment interaction) (rs7762993, allele A, ADD, Imputed, atorvastatin vs pravastatin): 1.066 | OR (SNP x treatment interaction) (rs7762993, allele A, DOM, Imputed, atorvastatin vs pravastatin): 1.079 | OR (SNP x treatment interaction) (rs7767265, allele G, ADD, Imputed, atorvastatin vs pravastatin): 1.18 | OR (SNP x treatment interaction) (rs7768128, allele G, REC, Imputed, atorvastatin vs pravastatin): 0.3066 | OR (SNP x treatment interaction) (rs7773151, allele C, DOM, Genotyped, atorvastatin vs pravastatin): 1.038 | OR (SNP x treatment interaction) (rs7773210, allele A, DOM, Genotyped, atorvastatin vs pravastatin): 1.038 | OR (SNP x treatment interaction) (rs7843510, allele G, DOM, Genotyped, atorvastatin vs pravastatin): 0.9929 | OR (SNP x treatment interaction) (rs7939893, allele C, ADD, Imputed, atorvastatin vs pravastatin): 0.6916 | OR (SNP x treatment interaction) (rs7939893, allele C, DOM, Imputed, atorvastatin vs pravastatin): 0.506 | OR (SNP x treatment interaction) (rs7944513, allele T, REC, Imputed, atorvastatin vs pravastatin): 1.787 | OR (SNP x treatment interaction) (rs7949720, allele G, ADD, Imputed, atorvastatin vs pravastatin): 1.485 | OR (SNP x treatment interaction) (rs7949720, allele G, DOM, Imputed, atorvastatin vs pravastatin): 1.52 | OR (SNP x treatment interaction) (rs7955901, allele C, ADD, Imputed, atorvastatin vs pravastatin): 0.7285 | OR (SNP x treatment interaction) (rs7955901, allele C, DOM, Imputed, atorvastatin vs pravastatin): 0.7139 | OR (SNP x treatment interaction) (rs7956274, allele T, ADD, Imputed, atorvastatin vs pravastatin): 0.7156 | OR (SNP x treatment interaction) (rs7956274, allele T, DOM, Imputed, atorvastatin vs pravastatin): 0.7031 | OR (SNP x treatment interaction) (rs7957932, allele G, ADD, Imputed, atorvastatin vs pravastatin): 0.7234 | OR (SNP x treatment interaction) (rs7957932, allele G, DOM, Imputed, atorvastatin vs pravastatin): 0.6888 | OR (SNP x treatment interaction) (rs7999518, allele A, REC, Imputed, atorvastatin vs pravastatin): 0.4462 | OR (SNP x treatment interaction) (rs8026245, allele G, REC, Imputed, atorvastatin vs pravastatin): 1.888 | OR (SNP x treatment interaction) (rs8060725, allele A, ADD, Genotyped, atorvastatin vs pravastatin): 0.6772 | OR (SNP x treatment interaction) (rs8103016, allele A, ADD, Genotyped, atorvastatin vs pravastatin): 1.223 | OR (SNP x treatment interaction) (rs8104182, allele G, ADD, Imputed, atorvastatin vs pravastatin): 1.298 | OR (SNP x treatment interaction) (rs8104182, allele G, DOM, Imputed, atorvastatin vs pravastatin): 1.4 | OR (SNP x treatment interaction) (rs8129461, allele G, ADD, Imputed, atorvastatin vs pravastatin): 0.3726 | OR (SNP x treatment interaction) (rs8129461, allele G, DOM, Imputed, atorvastatin vs pravastatin): 0.3187 | OR (SNP x treatment interaction) (rs8130021, allele G, ADD, Imputed, atorvastatin vs pravastatin): 0.4152 | OR (SNP x treatment interaction) (rs8130021, allele G, DOM, Imputed, atorvastatin vs pravastatin): 0.3565 | OR (SNP x treatment interaction) (rs9293464, allele T, REC, Imputed, atorvastatin vs pravastatin): 1.207 | OR (SNP x treatment interaction) (rs9295154, allele G, DOM, Genotyped, atorvastatin vs pravastatin): 1.463 | OR (SNP x treatment interaction) (rs9310221, allele A, DOM, Imputed, atorvastatin vs pravastatin): 0.8966 | OR (SNP x treatment interaction) (rs9327555, allele T, DOM, Imputed, atorvastatin vs pravastatin): 0.5934 | OR (SNP x treatment interaction) (rs9403367, allele C, DOM, Imputed, atorvastatin vs pravastatin): 1.038 | OR (SNP x treatment interaction) (rs9419608, allele G, REC, Imputed, atorvastatin vs pravastatin): 0.5885 | OR (SNP x treatment interaction) (rs9426437, allele T, DOM, Imputed, atorvastatin vs pravastatin): 1.067 | OR (SNP x treatment interaction) (rs9454967, allele G, DOM, Imputed, atorvastatin vs pravastatin): 0.9744 | OR (SNP x treatment interaction) (rs9635511, allele T, DOM, Imputed, atorvastatin vs pravastatin): 0.8692 | OR (SNP x treatment interaction) (rs9812206, allele G, ADD, Imputed, atorvastatin vs pravastatin): 1.042 | OR (SNP x treatment interaction) (rs9812206, allele G, DOM, Imputed, atorvastatin vs pravastatin): 1.042 | OR (SNP x treatment interaction) (rs9813552, allele G, ADD, Imputed, atorvastatin vs pravastatin): 1.042 | OR (SNP x treatment interaction) (rs9813552, allele G, DOM, Imputed, atorvastatin vs pravastatin): 1.077 | OR (SNP x treatment interaction) (rs9815037, allele T, DOM, Imputed, atorvastatin vs pravastatin): 1.083 | OR (SNP x treatment interaction) (rs9825349, allele A, DOM, Imputed, atorvastatin vs pravastatin): 1.083 | OR (SNP x treatment interaction) (rs9840756, allele A, ADD, Imputed, atorvastatin vs pravastatin): 0.9995 | OR (SNP x treatment interaction) (rs9840756, allele A, DOM, Imputed, atorvastatin vs pravastatin): 1.031
